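Growth conditions: 96-well plates. Treatment: test compound, 48 hours, 5 concentrations. Analysis: linear interpolation between bracketing concentrations; unreached endpoints set to highest concentration. The concentration for 50% growth inhibition is given as GI50.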 Activity calls are given as the source filed them. Cut-off read from the data, not from the text of the source: active = GI50 up to about 1.1 µM and inactive = higher.
Key:
Assay in all cases: NCI tumour cell line growth inhibition, 48 h
RXF 393 = tested on: RXF 393
UO-31 = tested on: UO-31
IGROV-1 = tested on: IGROV-1
SK-OV-3 = tested on: SK-OV-3
HCT-15 = tested on: HCT-15
CCRF-CEM = tested on: CCRF-CEM
NCI-H23 = tested on: NCI-H23
SK-MEL-2 = tested on: SK-MEL-2
CAKI-1 = tested on: CAKI-1
SN12C = tested on: SN12C
HOP-92 = tested on: HOP-92
SK-MEL-28 = tested on: SK-MEL-28
SNB-75 = tested on: SNB-75
KM-20L2 = tested on: KM-20L2
NCI-H522 = tested on: NCI-H522
SF-268 = tested on: SF-268
LOX IMVI = tested on: LOX IMVI
SW-620 = tested on: SW-620

SMILES	GI50 (RXF 393)	GI50 (UO-31)	GI50 (IGROV-1)	GI50 (SK-OV-3)	GI50 (HCT-15) [µM]	GI50 (CCRF-CEM)	GI50 (NCI-H23)	GI50 (SK-MEL-2)	GI50 (CAKI-1)	GI50 (SN12C)	GI50 (HOP-92)	GI50 (SK-MEL-28)	GI50 (SNB-75)	GI50 (KM-20L2)	GI50 (NCI-H522)	GI50 (SF-268)	GI50 (LOX IMVI)	GI50 (SW-620)
O=[N+]([O-])c1ccc(/C=N/C23CC4CC(CC(C4)C2)C3)cc1	> 100 µM (inactive)	> 100 µM (inactive)	> 100 µM (inactive)	> 100 µM (inactive)	> 100	80.4 µM (inactive)	> 100 µM (inactive)	> 100 µM (inactive)	> 100 µM (inactive)	> 100 µM (inactive)	> 100 µM (inactive)	> 100 µM (inactive)	> 100 µM (inactive)	> 100 µM (inactive)	> 100 µM (inactive)	> 100 µM (inactive)	85.7 µM (inactive)	–
CN(C)/C=C/C(=O)c1cccc(C(=O)/C=C/N(C)C)n1	> 100 µM (inactive)	> 100 µM (inactive)	> 100 µM (inactive)	> 100 µM (inactive)	> 100	> 100 µM (inactive)	> 100 µM (inactive)	> 100 µM (inactive)	–	> 100 µM (inactive)	> 100 µM (inactive)	> 100 µM (inactive)	> 100 µM (inactive)	> 100 µM (inactive)	> 100 µM (inactive)	> 100 µM (inactive)	> 100 µM (inactive)	> 100 µM (inactive)
CC1=NN(C(=O)Cc2ccccc2)C(=O)/C1=C\c1ccc([N+](=O)[O-])cc1	> 100 µM (inactive)	> 100 µM (inactive)	> 100 µM (inactive)	> 100 µM (inactive)	> 100	> 100 µM (inactive)	> 100 µM (inactive)	> 100 µM (inactive)	> 100 µM (inactive)	> 100 µM (inactive)	1.15 µM (inactive)	> 100 µM (inactive)	–	> 100 µM (inactive)	> 100 µM (inactive)	> 100 µM (inactive)	> 100 µM (inactive)	> 100 µM (inactive)
N#CCN1C(=O)c2cc([N+](=O)[O-])cc3cc([N+](=O)[O-])cc(c23)C1=O	8.28 µM (inactive)	13.8 µM (inactive)	13.2 µM (inactive)	39.6 µM (inactive)	6.71	2.77 µM (inactive)	15.9 µM (inactive)	3.94 µM (inactive)	23.9 µM (inactive)	13.1 µM (inactive)	17.1 µM (inactive)	19 µM (inactive)	26.1 µM (inactive)	12.9 µM (inactive)	–	17 µM (inactive)	6.41 µM (inactive)	7.53 µM (inactive)
CCCOP(=S)(N1CC1)N1CC1	> 100 µM (inactive)	> 100 µM (inactive)	> 100 µM (inactive)	> 100 µM (inactive)	> 100	> 100 µM (inactive)	> 100 µM (inactive)	> 100 µM (inactive)	> 100 µM (inactive)	> 100 µM (inactive)	> 100 µM (inactive)	> 100 µM (inactive)	48.3 µM (inactive)	> 100 µM (inactive)	> 100 µM (inactive)	> 100 µM (inactive)	> 100 µM (inactive)	> 100 µM (inactive)
COC(=O)N/N=C(/CCC(=O)Nc1ccc(C)c(C)c1)CC(=O)C(C)(C)C	> 100 µM (inactive)	> 100 µM (inactive)	> 100 µM (inactive)	> 100 µM (inactive)	> 100	> 100 µM (inactive)	> 100 µM (inactive)	> 100 µM (inactive)	> 100 µM (inactive)	> 100 µM (inactive)	–	> 100 µM (inactive)	> 100 µM (inactive)	> 100 µM (inactive)	> 100 µM (inactive)	> 100 µM (inactive)	> 100 µM (inactive)	> 100 µM (inactive)
CCOC(=O)c1[nH]c(COC(C)=O)c(CCCOC(C)=O)c1CCCOC(C)=O	> 100 µM (inactive)	–	> 100 µM (inactive)	> 100 µM (inactive)	> 100	> 100 µM (inactive)	> 100 µM (inactive)	> 100 µM (inactive)	> 100 µM (inactive)	> 100 µM (inactive)	> 100 µM (inactive)	> 100 µM (inactive)	–	> 100 µM (inactive)	23 µM (inactive)	> 100 µM (inactive)	> 100 µM (inactive)	> 100 µM (inactive)
ClC/C=C/COC1CCCCO1 (centres undefined)	> 100 µM (inactive)	> 100 µM (inactive)	> 100 µM (inactive)	> 100 µM (inactive)	> 100	36.8 µM (inactive)	> 100 µM (inactive)	> 100 µM (inactive)	89.9 µM (inactive)	> 100 µM (inactive)	> 100 µM (inactive)	–	> 100 µM (inactive)	> 100 µM (inactive)	2.12 µM (inactive)	63.7 µM (inactive)	–	> 100 µM (inactive)
CC1=CC=C2C(C)(C)CC[C@@H]3OC(=O)[C@H]1[C@]23C	> 100 µM (inactive)	> 100 µM (inactive)	> 100 µM (inactive)	> 100 µM (inactive)	–	> 100 µM (inactive)	> 100 µM (inactive)	15.5 µM (inactive)	> 100 µM (inactive)	> 100 µM (inactive)	> 100 µM (inactive)	> 100 µM (inactive)	> 100 µM (inactive)	> 100 µM (inactive)	> 100 µM (inactive)	> 100 µM (inactive)	> 100 µM (inactive)	> 100 µM (inactive)
O=C1C2C=CC(n3[nH]c(=O)n(Cc4ccccc4)c3=O)CC2C(=O)N1c1cccc(Cl)c1 (centres undefined)	> 100 µM (inactive)	> 100 µM (inactive)	> 100 µM (inactive)	> 100 µM (inactive)	> 100	> 100 µM (inactive)	> 100 µM (inactive)	> 100 µM (inactive)	> 100 µM (inactive)	> 100 µM (inactive)	> 100 µM (inactive)	> 100 µM (inactive)	> 100 µM (inactive)	> 100 µM (inactive)	> 100 µM (inactive)	> 100 µM (inactive)	> 100 µM (inactive)	> 100 µM (inactive)
OCc1cc2c(cn1)[nH]c1ccc(NCc3ccccc3)cc12	20.3 µM (inactive)	20.7 µM (inactive)	43 µM (inactive)	25.5 µM (inactive)	27.2	20.7 µM (inactive)	20 µM (inactive)	40.2 µM (inactive)	27.4 µM (inactive)	34.9 µM (inactive)	15.9 µM (inactive)	16.1 µM (inactive)	25.5 µM (inactive)	14.4 µM (inactive)	15.7 µM (inactive)	20.5 µM (inactive)	28.4 µM (inactive)	27.4 µM (inactive)
O=C1OC(c2ccccc2)=N/C1=C/NC(Cc1ccccc1)C(=O)O (centres undefined)	> 100 µM (inactive)	> 100 µM (inactive)	> 100 µM (inactive)	> 100 µM (inactive)	> 100	> 100 µM (inactive)	> 100 µM (inactive)	> 100 µM (inactive)	> 100 µM (inactive)	> 100 µM (inactive)	–	> 100 µM (inactive)	50.8 µM (inactive)	> 100 µM (inactive)	> 100 µM (inactive)	> 100 µM (inactive)	> 100 µM (inactive)	> 100 µM (inactive)
N#CC(C#N)=CSc1ccccc1	17.2 µM (inactive)	13.3 µM (inactive)	17.3 µM (inactive)	59 µM (inactive)	22.1	1.52 µM (inactive)	57.4 µM (inactive)	18.7 µM (inactive)	26.2 µM (inactive)	19.6 µM (inactive)	50.2 µM (inactive)	23.8 µM (inactive)	24.1 µM (inactive)	32.7 µM (inactive)	11.8 µM (inactive)	13.4 µM (inactive)	12.6 µM (inactive)	32.4 µM (inactive)
COc1ccc(/C=C/c2nnc(S)[nH]2)cc1OC	> 100 µM (inactive)	> 100 µM (inactive)	> 100 µM (inactive)	–	> 100	> 100 µM (inactive)	> 100 µM (inactive)	> 100 µM (inactive)	> 100 µM (inactive)	> 100 µM (inactive)	> 100 µM (inactive)	> 100 µM (inactive)	> 100 µM (inactive)	> 100 µM (inactive)	–	> 100 µM (inactive)	> 100 µM (inactive)	> 100 µM (inactive)
Nc1nc2c(ncn2CC(CO)CC(c2ccccc2)P(=O)(O)O)c(=O)[nH]1 (centres undefined)	> 100 µM (inactive)	> 100 µM (inactive)	> 100 µM (inactive)	> 100 µM (inactive)	> 100	> 100 µM (inactive)	> 100 µM (inactive)	> 100 µM (inactive)	> 100 µM (inactive)	> 100 µM (inactive)	> 100 µM (inactive)	> 100 µM (inactive)	–	> 100 µM (inactive)	> 100 µM (inactive)	> 100 µM (inactive)	> 100 µM (inactive)	> 100 µM (inactive)
CC1=CC(=O)CC2(C)CC[C@@H]3C[C@]12OC3(C)C (some centres undefined)	> 100 µM (inactive)	> 100 µM (inactive)	> 100 µM (inactive)	> 100 µM (inactive)	> 100	> 100 µM (inactive)	> 100 µM (inactive)	> 100 µM (inactive)	> 100 µM (inactive)	> 100 µM (inactive)	> 100 µM (inactive)	> 100 µM (inactive)	> 100 µM (inactive)	> 100 µM (inactive)	> 100 µM (inactive)	> 100 µM (inactive)	> 100 µM (inactive)	> 100 µM (inactive)

— ChEMBL document CHEMBL1201862, “PubChem BioAssay data set” (2004)
